The source of these data is article PMC7104723 (Cell Research, 2020).

As usually defined, the IC50 is the concentration at which inhibition is half-maximal. A high value points to weaker potency.

Several values for one entry are separate records, joined by “and”; a condition that tells them apart may be missing. Equal entries are not always repeated. Non-standard residues stand in square brackets, D forms with d. Residues, ends and D or L forms follow the SMILES beside them. *: point of attachment. X1 = CC(C)CCC[C@@H](C)[C@H]1CC[C@H]2[C@@H]3CC=C4C[C@@H](OC(=O)C*)CC[C@]4(C)[C@H]3CC[C@]12C; PEG4 = NCCOCCOCCOCCOCCC(=O)O

The subject of one assay is SARS-CoV-2 PsV. The note with it: PsV, 72 h.
The next assay deals with SARS-CoV-2 S protein (Severe acute respiratory syndrome coronavirus 2, UniProt P0DTC2). In words: cell-based. Type of assay: cell-based.
Another assay relates to WIV1 PsV. The note with it: 72 h.
For another assay, the target named is HCoV-OC43 S protein (Human coronavirus OC43, UniProt P36334). Kind of assay: cell-based. Type of assay: cell-based.
The subject of a further assay is MERS-CoV PsV. The conditions noted are these: 72 h.
The target in the next assay is HCoV-NL63 S protein (Human coronavirus NL63, UniProt Q6Q1S2). In words: cell-based. The class given is cell-based.
The next assay deals with HCoV-229E S protein (Human coronavirus 229E, UniProt P15423). In words: cell-based. Type of assay: cell-based.
A further assay concerns the target SARS-CoV S protein (Severe acute respiratory syndrome coronavirus, UniProt P59594). Kind of assay: cell-based. The class given is cell-based.
The next assay has as its system HCoV-OC43 PsV. The note with it: 72 h.
The test system of a further assay is HCoV-229E PsV. The note with it: 72 h.
In a further assay the test system is live MERS-CoV. The conditions noted are these: 72 h.
The next assay has as its system live HCoV-OC43. The conditions noted are these: 1 h.
The next assay relates to HCoV-NL63 PsV. The note with it: 72 h.
The next assay concerns live HCoV-NL63. The note with it: 1 h.
The next assay relates to live SARS-CoV-2. The conditions noted are these: live, 72 h.
A further assay concerns live HCoV-229E. The note with it: 1 h.
For the next assay, the target named is MERS-CoV S protein (Middle East respiratory syndrome-related coronavirus, UniProt K9N5Q8). Kind of assay: cell-based. Type of assay: cell-based.
Another assay relates to Rs3367 PsV. The note with it: 72 h.
A further assay has as its system SARS-CoV PsV. The conditions noted are these: 72 h.
A further assay has as its system SHC014 S protein. The class given is cell-based, SL-CoV RsSHC014.
The next assay relates to WIV1 S protein. Type of assay: cell-based, SL-CoV WIV1.
Another assay relates to Rs3367 S protein. Type of assay: cell-based, SL-CoV Rs3367.

Chain of HCoV-OC43 S protein (P36334 14-1353 limits assumed): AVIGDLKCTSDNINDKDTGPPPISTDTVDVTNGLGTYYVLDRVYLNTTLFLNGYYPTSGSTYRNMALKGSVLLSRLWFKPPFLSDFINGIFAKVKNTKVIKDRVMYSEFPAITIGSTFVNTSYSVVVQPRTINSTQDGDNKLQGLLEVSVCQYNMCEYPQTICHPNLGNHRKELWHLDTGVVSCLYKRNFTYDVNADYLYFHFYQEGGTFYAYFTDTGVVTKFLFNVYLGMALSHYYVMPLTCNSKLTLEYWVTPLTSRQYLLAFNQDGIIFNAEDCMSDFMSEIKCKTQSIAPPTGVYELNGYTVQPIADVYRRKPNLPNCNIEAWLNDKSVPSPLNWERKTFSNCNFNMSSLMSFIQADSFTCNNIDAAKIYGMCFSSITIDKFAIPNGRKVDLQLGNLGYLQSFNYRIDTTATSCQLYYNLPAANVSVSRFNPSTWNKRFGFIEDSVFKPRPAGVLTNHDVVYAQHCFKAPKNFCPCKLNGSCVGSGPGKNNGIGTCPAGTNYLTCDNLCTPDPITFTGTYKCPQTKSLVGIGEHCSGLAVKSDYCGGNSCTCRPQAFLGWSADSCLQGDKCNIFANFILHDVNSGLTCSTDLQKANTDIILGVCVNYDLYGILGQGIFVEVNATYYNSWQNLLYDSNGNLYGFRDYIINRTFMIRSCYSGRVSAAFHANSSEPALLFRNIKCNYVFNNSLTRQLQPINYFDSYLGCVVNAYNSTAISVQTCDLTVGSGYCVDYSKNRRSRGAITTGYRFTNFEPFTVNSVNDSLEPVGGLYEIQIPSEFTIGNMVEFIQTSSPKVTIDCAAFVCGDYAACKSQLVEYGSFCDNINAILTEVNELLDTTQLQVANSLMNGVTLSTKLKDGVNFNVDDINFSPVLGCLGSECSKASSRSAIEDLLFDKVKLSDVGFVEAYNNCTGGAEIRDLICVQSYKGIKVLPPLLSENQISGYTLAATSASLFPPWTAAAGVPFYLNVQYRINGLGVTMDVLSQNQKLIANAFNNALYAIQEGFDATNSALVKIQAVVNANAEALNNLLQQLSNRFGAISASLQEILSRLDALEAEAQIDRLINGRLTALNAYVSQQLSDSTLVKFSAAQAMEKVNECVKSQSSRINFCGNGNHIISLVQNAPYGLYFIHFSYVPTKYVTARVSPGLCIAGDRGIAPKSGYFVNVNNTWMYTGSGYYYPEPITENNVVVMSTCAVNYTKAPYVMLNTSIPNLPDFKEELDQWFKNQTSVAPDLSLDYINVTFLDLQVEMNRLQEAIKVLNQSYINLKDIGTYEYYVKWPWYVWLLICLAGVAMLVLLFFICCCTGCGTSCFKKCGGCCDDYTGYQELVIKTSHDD
Chain of HCoV-229E S protein (P15423 16-1173 limits assumed): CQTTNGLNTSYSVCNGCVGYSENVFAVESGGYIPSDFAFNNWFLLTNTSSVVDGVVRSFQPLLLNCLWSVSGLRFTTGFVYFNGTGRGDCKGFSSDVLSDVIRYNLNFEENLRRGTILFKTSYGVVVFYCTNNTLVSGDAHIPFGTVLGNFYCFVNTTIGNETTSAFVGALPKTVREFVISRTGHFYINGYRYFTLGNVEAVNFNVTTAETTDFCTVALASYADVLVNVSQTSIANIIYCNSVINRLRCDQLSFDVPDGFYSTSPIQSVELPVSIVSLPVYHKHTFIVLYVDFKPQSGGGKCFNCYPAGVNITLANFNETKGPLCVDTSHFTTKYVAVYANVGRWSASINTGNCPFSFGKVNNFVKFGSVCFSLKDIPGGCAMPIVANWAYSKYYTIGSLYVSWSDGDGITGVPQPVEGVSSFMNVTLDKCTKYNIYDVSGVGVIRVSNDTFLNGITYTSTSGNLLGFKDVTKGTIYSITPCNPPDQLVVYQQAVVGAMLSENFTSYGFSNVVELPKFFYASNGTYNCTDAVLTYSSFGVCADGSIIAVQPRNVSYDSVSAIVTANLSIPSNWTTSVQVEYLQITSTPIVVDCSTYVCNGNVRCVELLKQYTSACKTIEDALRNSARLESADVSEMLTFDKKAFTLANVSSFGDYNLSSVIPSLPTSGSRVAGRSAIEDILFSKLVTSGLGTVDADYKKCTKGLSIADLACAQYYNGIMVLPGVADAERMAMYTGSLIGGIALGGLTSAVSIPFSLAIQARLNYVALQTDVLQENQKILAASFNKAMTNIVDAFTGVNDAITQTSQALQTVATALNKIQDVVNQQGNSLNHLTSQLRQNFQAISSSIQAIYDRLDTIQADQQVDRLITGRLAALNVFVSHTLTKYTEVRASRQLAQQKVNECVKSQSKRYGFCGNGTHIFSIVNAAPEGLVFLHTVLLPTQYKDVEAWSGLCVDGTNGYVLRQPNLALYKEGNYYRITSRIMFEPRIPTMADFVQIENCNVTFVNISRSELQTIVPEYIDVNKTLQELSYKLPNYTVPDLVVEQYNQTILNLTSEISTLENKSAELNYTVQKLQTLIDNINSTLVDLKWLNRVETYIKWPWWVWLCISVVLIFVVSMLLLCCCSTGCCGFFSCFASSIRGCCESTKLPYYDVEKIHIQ
Chain of MERS-CoV S protein (K9N5Q8 18-1353 limits assumed): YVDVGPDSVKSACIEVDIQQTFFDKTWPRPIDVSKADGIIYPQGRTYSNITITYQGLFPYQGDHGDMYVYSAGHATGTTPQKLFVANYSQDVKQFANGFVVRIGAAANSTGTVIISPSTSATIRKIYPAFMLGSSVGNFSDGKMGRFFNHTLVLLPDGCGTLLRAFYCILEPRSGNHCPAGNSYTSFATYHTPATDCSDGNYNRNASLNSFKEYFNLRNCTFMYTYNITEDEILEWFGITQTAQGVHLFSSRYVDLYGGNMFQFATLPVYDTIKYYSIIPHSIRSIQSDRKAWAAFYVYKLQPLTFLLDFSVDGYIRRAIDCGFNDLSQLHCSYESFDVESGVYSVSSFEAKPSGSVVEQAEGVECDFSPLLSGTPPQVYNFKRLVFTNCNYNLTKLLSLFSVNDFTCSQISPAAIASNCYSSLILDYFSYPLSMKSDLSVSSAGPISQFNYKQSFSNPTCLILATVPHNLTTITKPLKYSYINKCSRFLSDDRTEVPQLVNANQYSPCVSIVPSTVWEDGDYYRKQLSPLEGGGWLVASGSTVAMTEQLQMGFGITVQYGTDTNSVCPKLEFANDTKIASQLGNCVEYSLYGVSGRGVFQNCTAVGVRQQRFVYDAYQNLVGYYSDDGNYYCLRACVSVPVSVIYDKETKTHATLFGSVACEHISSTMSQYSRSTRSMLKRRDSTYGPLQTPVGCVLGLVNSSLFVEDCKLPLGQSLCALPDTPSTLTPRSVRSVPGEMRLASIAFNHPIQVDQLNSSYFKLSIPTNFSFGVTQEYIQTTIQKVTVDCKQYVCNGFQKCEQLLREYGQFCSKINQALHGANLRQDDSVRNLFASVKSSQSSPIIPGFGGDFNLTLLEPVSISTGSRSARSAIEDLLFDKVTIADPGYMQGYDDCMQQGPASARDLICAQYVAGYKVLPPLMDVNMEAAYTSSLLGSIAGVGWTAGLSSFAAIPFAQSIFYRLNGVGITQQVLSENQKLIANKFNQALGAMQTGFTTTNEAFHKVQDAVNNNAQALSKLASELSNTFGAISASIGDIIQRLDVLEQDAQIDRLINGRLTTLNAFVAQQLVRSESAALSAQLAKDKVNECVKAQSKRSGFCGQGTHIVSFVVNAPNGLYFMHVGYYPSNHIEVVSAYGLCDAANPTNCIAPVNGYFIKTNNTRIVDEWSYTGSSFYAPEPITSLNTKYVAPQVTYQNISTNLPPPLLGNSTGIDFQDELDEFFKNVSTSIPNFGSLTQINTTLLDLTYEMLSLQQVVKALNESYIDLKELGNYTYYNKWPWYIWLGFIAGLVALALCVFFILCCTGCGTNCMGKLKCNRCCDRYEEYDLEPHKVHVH

In the assay with SARS-CoV-2 PsV, `CC[C@H](C)[C@H](NC(=O)[C@H](C)NC(=O)[C@H](CCC(=O)O)NC(=O)[C@H](CCC(=O)O)NC(=O)[C@H](CC(C)C)NC(=O)[C@H](CCCCN)NC(=O)[C@H](CCCCN)NC(=O)[C@H](CCSC)NC(=O)[C@H](CCC(=O)O)NC(=O)[C@H](Cc1ccc(O)cc1)NC(=O)[C@H](CCC(=O)O)NC(=O)[C@H](CC(C)C)NC(=O)[C@H](CC(=O)O)NC(=O)[C@H](CC(C)C)NC(=O)[C@H](Cc1ccccc1)NC(=O)[C@@H](NC(=O)[C@@H](NC(=O)[C@H](CC(N)=O)NC(=O)[C@@H](NC(=O)[C@H](CCC(N)=O)NC(=O)[C@H](CC(=O)O)NC(=O)[C@H](CC(C)C)NC(=O)[C@@H](N)CO)[C@@H](C)CC)C(C)C)[C@@H](C)O)C(=O)N[C@@H](CCCCN)C(=O)N[C@@H](CCCCN)C(=O)N[C@@H](CC(C)C)C(=O)N[C@@H](CCC(=O)O)C(=O)N[C@@H](CCC(=O)O)C(=O)N[C@@H](CO)C(=O)N[C@@H](Cc1ccc(O)cc1)C(=O)N[C@H](C(=O)N[C@@H](CC(=O)O)C(=O)N[C@@H](CC(C)C)C(=O)N[C@@H](CCCCN)C(=O)N[C@@H](CCC(=O)O)C(=O)N[C@@H](CC(C)C)C(=O)NCCOCCOCCOCCOCCC(=O)N[C@@H](CSCC(=O)O[C@H]1CC[C@@]2(C)C(=CC[C@H]3[C@@H]4CC[C@H]([C@H](C)CCCC(C)C)[C@@]4(C)CC[C@@H]32)C1)C(N)=O)[C@@H](C)CC` [EK1C] (H-SLDQINVTFLDLEYEMKKLEEAIKKLEESYIDLKEL[PEG4]C(X1)-NH2) yielded a half-inhibitory concentration (IC50) of 139 nM. Further, the “Inhibition of SARS-CoV-2 mediated cell–cell fusion at 2.5 μM” value at SARS-CoV-2 S protein is on record as “completely inhibit”.
Regarding `CC[C@H](C)[C@H](NC(=O)[C@H](C)NC(=O)[C@H](CCC(=O)O)NC(=O)[C@H](CCC(=O)O)NC(=O)[C@H](CC(C)C)NC(=O)[C@H](CCCCN)NC(=O)[C@H](CCCCN)NC(=O)[C@H](CCSC)NC(=O)[C@H](CCC(=O)O)NC(=O)[C@H](Cc1ccc(O)cc1)NC(=O)[C@H](CCC(=O)O)NC(=O)[C@H](CC(C)C)NC(=O)[C@H](CC(=O)O)NC(=O)[C@H](CC(C)C)NC(=O)[C@H](Cc1ccccc1)NC(=O)[C@@H](NC(=O)[C@@H](NC(=O)[C@H](CC(N)=O)NC(=O)[C@@H](NC(=O)[C@H](CCC(N)=O)NC(=O)[C@H](CC(=O)O)NC(=O)[C@H](CC(C)C)NC(=O)[C@@H](N)CO)[C@@H](C)CC)C(C)C)[C@@H](C)O)C(=O)N[C@@H](CCCCN)C(=O)N[C@@H](CCCCN)C(=O)N[C@@H](CC(C)C)C(=O)N[C@@H](CCC(=O)O)C(=O)N[C@@H](CCC(=O)O)C(=O)N[C@@H](CO)C(=O)N[C@@H](Cc1ccc(O)cc1)C(=O)N[C@H](C(=O)N[C@@H](CC(=O)O)C(=O)N[C@@H](CC(C)C)C(=O)N[C@@H](CCCCN)C(=O)N[C@@H](CCC(=O)O)C(=O)N[C@@H](CC(C)C)C(=O)O)[C@@H](C)CC` [EK1], the half-inhibitory concentration (IC50) is 5420 nM in the assay with WIV1 PsV; 788 nM against HCoV-OC43 S protein; 632 nM in the assay with MERS-CoV PsV; 2380 nM in the assay on SARS-CoV-2 PsV; 751 nM against HCoV-NL63 S protein; 207 nM at HCoV-229E S protein. The IC50 came out at 409 nM at SARS-CoV S protein; 1400 nM with HCoV-OC43 PsV; 3960 nM with HCoV-229E PsV; 802 nM in the assay with live MERS-CoV; 1550 nM with live HCoV-OC43; 7670 nM in the assay with HCoV-NL63 PsV. The concentration for half-maximal inhibition (IC50) with live HCoV-NL63 worked out at 3690 nM; with live SARS-CoV-2, 2470 nM; in the assay on live HCoV-229E, 4380 nM; on MERS-CoV S protein, 239 nM; in the assay with Rs3367 PsV, 6010 nM; with SARS-CoV PsV it was 3240 nM. For the same compound, at SARS-CoV-2 S protein (IC50, SARS-CoV-2 S-mediated cell–cell fusion), the half-maximal inhibitory concentration (IC50) was 287 nM and 315 nM.
For “LKVLLYEEFKLLESLIMEILEYQKDSDIKENAEDTK [EK1-scrambled, reference compound]”, the “Inhibitory activity on HCoV-OC43 S-mediated cell–cell fusion” value on HCoV-OC43 S protein was “no inhibitory activity”. The “Inhibitory activity on HCoV-NL63 S-mediated cell–cell fusion” value on HCoV-NL63 S protein is reported as “no inhibitory activity”. For the same compound, the “Inhibitory activity on HCoV-229E S-mediated cell–cell fusion” value on HCoV-229E S protein is listed as “no inhibitory activity”. At SARS-CoV S protein, the “Inhibitory activity on SARS-CoV S-mediated cell–cell fusion” value is given as “no inhibitory activity”. Moreover, in the assay with SHC014 S protein, the “Inhibitory activity on SHC014 S-mediated cell–cell fusion” value is “no inhibitory activity”. In the assay with WIV1 S protein, the “Inhibitory activity on WIV1 S-mediated cell–cell fusion” value is listed as “no inhibitory activity”. Also, in the assay with Rs3367 S protein, the “Inhibitory activity on Rs3367 S-mediated cell–cell fusion” value is on record as “no inhibitory activity”. Also, the “Inhibitory activity on MERS-CoV S-mediated cell–cell fusion” value on MERS-CoV S protein is listed as “no inhibitory activity”. Besides, the “Inhibitory activity on SARS-CoV-2 S-mediated cell–cell fusion” value on SARS-CoV-2 S protein is “no inhibitory activity”.
